Entries after “also recorded” stand apart in the source; their conditions may differ.
Legend:
[1] = tested on: monoclonal antibody AI-11; experiment: Solid-phase polypeptide direct binding ELISA; parameters: species or system mouse; settings: peptide coated at 50 μg/ml; 0.5 μg/ml HRP-conjugated AI-11
Experimental: Apo AI polypeptides AI84-111, AI85-111, AI90-111, AI93-111, AI94-111, AI-94-125, AI96-111, AI99-111, and AI99-114 were tested for immunoreactivity with monoclonal antibody AI-11 in a direct binding ELISA. In the assay, 50 μg/ml of each polypeptide was dissolved in PBS to form a peptide coating solution, of which 150 μl was admixed into the wells of a flexible polyvinyl chloride microtiter plate (Immulon). The wells were then maintained about 16 to 20 at 4° C. to permit the peptide to absorb onto (coat) the walls of the wells. After removing the peptide coating solution by shaking, the wells were washed once with 350 μl of rinsing buffer (PBS containing 1 g/l BSA, 0.5 ml/l Tween 20, and 2 μl/1 aprotinin). Excess protein binding sites were blocked by admixing 200 μl of blocking buffer (PBS containing 3% BSA) into each well, maintaining the wells for 1 hour at 37° C., removing the blocking buffer by shaking, and then washing the wells 3 times as previously described. The plate was then dried for 1 hour at 37° C. followed by addition of 100 μl of PBS containing 0.5 μg/ml horseradish peroxidase conjugated AI-11 antibody to form a solid-liquid phase immunoreaction admixture. The resulting solid-liquid phase immunoreaction admixture was maintained at 20° C. for 1 hour to permit formation of a solid-phase polypeptide-containing immunoreaction product. The wells were then washed 3 times with rinsing buffer to remove unbound antibody.
The amount of immunoreaction product present in the solid phase was then determined by admixing two hundred microliters of OPD substrate into each well to form a developing-reaction admixture. The admixture was maintained for 30 minutes at about 20° C. Subsequently, 50 μl of 4N H2 SO4 were admixed into each well to stop the developing-reaction, and the resulting solution was assayed for absorbance at 450 nanometers using a microtiter plate reader (Dynatech) to detect the amount of formed immunoreaction product.

MAB AI-4 = experiment: Competitive RIA, MAB AI-4 binding to Apo AI/HDL-coated wells; parameters: species or system mouse; settings: FIG. 3 and FIG. 4
Experimental: The immunoreactivity of MAB AI-4 for native Apo AI/HDL and various synthetic polypeptides was examined by a competitive RIA performed as follows:
(§1) One hundred μl of PBS (0.15M NaCl, 0.01M NaPO4, pH 7.2) containing 10 μg/ml Apo AI/HDL were admixed to the wells of microtiter plates. The plates were maintained for 1 hour at 20° C. on a rotating platform to allow the Apo AI/HDL to adhere to the wells and form solid supports. After aspirating excess liquid from the wells, 200 μl of block solution (3% BSA, 3% NGS in PBS) was admixed to each well, and the wells were maintained for 30 minutes at 20° C. on a rotating platform. Subsequently, the blocking solution was removed by aspiration, and the wells were washed 3 times with SPRIA buffer.
(§2) To each well was then admixed first with 50 μl of PBS containing 3% BSA and various concentrations of competitor antigen, i.e., Apo AI/HDL peptide, and, second, 50 μl of MAB AI-4 in the form of clarified ascites diluted 1:11.25×10^5 in PBS containing 3% BSA to form competitive immunoreaction admixtures. In control wells, either competing antigen or antibody was replaced by PBS containing 3% BSA.
(§3) The immunoreaction admixtures were maintained about 16 hours at 4° C. on a rotating platform to permit formation of solid-phase immunoreaction products. After washing the wells as previously described, 100 μl of ^125 I-labeled goat anti-mouse Ig (^125 I-goat anti-mouse Ig diluted to 2×10^5 trichloracetic acid precipitable disintegrations per minute per 100 μl in PBS containing 3% BSA) were admixed to each well. The labeling immunoreaction admixtures so formed were maintained for 4 hours at 4° C. on a rotating platform. Subsequently, the wells were washed with SPRIA buffer as previously described, and the amount of ^125 I-labeled solid-phase immunoreaction product formed was determined in a gamma counter.
The ability of MAB AI-4 to immunoreact with Apo AI/HDL was compared by using Apo AI/HDL and various synthetic peptides as competitors in the above-described RIA. B/Bo represents corrected CPMs which are plotted against increasing concentrations of competition in μg/ml. B/Bo values are determined in the following formula: [formula] where 0% CPM is a measure of non-specific background based on CPM obtained in RIAs where wells coated with Apo AI/HDL are reacted with the labeled secondary antibody in the absence of primary antibody and competitor, and where 100% CPM is a measure of the maximum non-competed binding of primary antibody to the substrate coated to the wells. The more efficiently a competitor binds to the primary antibody, the lower the B/Bo values.

MAB AI-11 = experiment: Competitive RIA, MAB AI-11 binding to Apo AI/HDL-coated wells; parameters: species or system mouse; settings: FIG. 5 and FIG. 6
Experimental: as §1, §2, §3
The immunoreactivity of MAB AI-11 for native Apo AI/HDL and various synthetic polypeptides was examined by a competitive RIA as described in Example 10A. […] Other peptides were evaluated for their ability to immunoreact with AI-1l MAE in competitive RIAs described herein.

LCAT = molecular target: T1, LCAT (Homo sapiens, UniProt P04180); settings: cited from earlier work
T1 sequence (P04180 25-440): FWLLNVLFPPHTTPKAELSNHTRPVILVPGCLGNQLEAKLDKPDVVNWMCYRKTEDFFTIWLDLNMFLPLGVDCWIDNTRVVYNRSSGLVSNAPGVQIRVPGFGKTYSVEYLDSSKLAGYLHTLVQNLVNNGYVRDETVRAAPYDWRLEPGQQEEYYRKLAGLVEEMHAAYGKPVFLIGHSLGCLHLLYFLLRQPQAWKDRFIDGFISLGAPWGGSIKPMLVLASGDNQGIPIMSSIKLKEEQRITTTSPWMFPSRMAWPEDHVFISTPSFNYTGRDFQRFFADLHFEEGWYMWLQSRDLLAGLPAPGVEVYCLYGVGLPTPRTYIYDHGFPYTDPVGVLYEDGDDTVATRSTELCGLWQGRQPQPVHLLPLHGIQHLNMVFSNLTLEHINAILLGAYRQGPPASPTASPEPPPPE

[2] = tested on: monoclonal antibody AI-11; experiment: Competition ELISA, AI-11 binding to AI96-111-coated wells; parameters: species or system mouse; settings: FIG. 2, competitor from 1 mg/ml, serial 2-fold dilutions
Experimental: To determine the relative effectiveness of AI-11 binding to Apo AI synthetic polypeptides, a competition ELISA was performed with AI 96-111 as the test synthetic polypeptide in comparison to Apo AI-containing serum and purified Apo AI/HDL. Microtiter plates were coated with AI 96-111 as described hereinbefore. After the drying step of the assay described hereinbefore, 50 μl of a fluid sample (i.e., an Apo AI-containing fluid sample) or standard (i.e., an Apo AI polypeptide) to be assayed were admixed into the polypeptide AI96-111-coated well simultaneously with 50 μl of HRPO-conjugated AI-11 antibody to form an immunoreaction admixture. In the assay described herein, 3 competitors were tested for their ability to compete for binding of AI-11 to the AI 96-111 polypeptide coated over a range of dilutions. The polypeptide AI 96-111 was added in separate coated wells at a starting concentration of 1 mg/ml and diluted 2-fold serially 6 times down to a final concentration of 0.0156 mg/ml. Serum samples as described in Example 2 were added at a starting dilution of 1:10 and diluted 2-fold serially 6 times down to a final dilution of […]. Apo AI/HDL as described in Example 2 was added at a starting concentration of 1 mg/ml and diluted 2-fold 5 times down to a final concentration of 0.031 mg/ml. The plate was then incubated for 30 minutes at room temperature. […]

Substance | immunoreactivity with monoclonal antibody AI-11 in direct binding ELISA [1] | immunoreactivity with MAB AI-4, competition of binding to Apo AI/HDL (MAB AI-4) | immunoreactivity with MAB AI-11, competition of binding to Apo AI/HDL (MAB AI-11) | further results
AI99-111: Apo AI polypeptide, residues 99-111 (PYLDDFQKKWQEE) | not bound by the antibody |  |  | 
AI100-105: peptide derived from Apo AI, residues 100-105 (YLDDFQ) |  | did not react | do not immunoreact | 
AI101-111: peptide derived from Apo AI, residues 101-111 (LDDFQKKWQEE) |  | did not react |  | 
Apo AI fragment residues 148-185: Apo AI fragment residues 148-185 (Sparrow et al.) (MRDRARAHVDALRTHLAPYSDELRQRLAARLEALKENG; UniProt P02647 172-209, looked up, fragment) |  |  |  | involvement in activation of LCAT and lipid binding (LCAT; Sparrow et al. 1980): involved in both activation of LCAT and lipid binding
Apo AI residues 121-164: synthetic polypeptide corresponding to Apo AI residues 121-164 (Fukushima et al.) (PLRAELQEGARQKLHELQEKLSPLGEEMRDRARAHVDALRTHLA; UniProt P02647 145-188, looked up, fragment) |  |  |  | effectiveness relative to native Apo AI in the activation of cholesterol esterification (LCAT; Fukushima et al. 1980): 30%
Apo AI/HDL: Apo AI when it is present on HDL particles, isolated from plasma [reference compound] |  | competitively inhibit | competitively inhibit | competition for binding of AI-11 to coated AI96-111 [2]: competitively inhibit; competition for binding of AI-11 to coated AI96-111 ([2]; listed as purified HDL): greater affinity
KAKVQPYLDDXQKKWQEEMEL (KAKVQPYLDDFQKKWQEEMEL) [AI94-114] |  | partial reactivity |  | 
KAKVQPYLDDXQKKWQEEMELYRQKVEPLRAE (KAKVQPYLDDFQKKWQEEMELYRQKVEPLRAE) [AI94-125] | specifically immunoreactive | better competitor; also recorded: competitively inhibit; also recorded: immunoreacts | inhibited; also recorded: immunoreact | 
PYLDDXQKKWQEEMEL (PYLDDFQKKWQEEMEL) [AI99-114] | recognized by the antibody but with decreased specificity | partial reactivity; also recorded: immunoreacted |  | 
PYLDDXQKKWQEEMELYRQKVEP (PYLDDFQKKWQEEMELYRQKVEP) [AI99-121] |  | nearly as well as Apo AI/HDL; also recorded: competitively inhibit; also recorded: immunoreacts | does not bind; also recorded: not a competitive inhibitor | 

— patent publication US5814467A, “APO AI polypeptides, diagnostic methods and systems for quantifying APO AI, and therapeutic methods” (The Scripps Research Institute, priority 1994, dated 1998)
